Measurements taken from publication PMC11145868, “Protein target similarity is positive predictor of in vitro antipathogenic activity: a drug repurposing strategy for Plasmodium falciparum” (Journal of Cheminformatics, 2024).
Counter-ions that a name gives are not always drawn. Like-named read-outs stand apart in the source and are kept apart here.

Key:
[1] = system: P. falciparum blood-stage; parameters: method as in PMID 28874661; conditions: read-out: EC50 against P. falciparum blood-stage growth in vitro; cited from earlier work
PfPKG = conditions: read-out: IC50 in PfPKG kinase assays; cited from earlier work
HEK293T cells [2] = experiment: Mammalian cell cytotoxicity assay, HEK293T (CellTiter-Glo, 72 h); conditions: read-out: HEK CC50
P. falciparum Dd2-HLH [3] = experiment: microbe, parasite or virus in culture; assay type: cell-based, Plasmodium falciparum; conditions: read-out: Blood stage 72h EC50
HepG2 cells [4] = experiment: Mammalian cell cytotoxicity assay, HepG2 (CellTiter-Glo, 72 h); conditions: read-out: HEP CC50
P. falciparum Dd2-HLH [5] = experiment: microbe, parasite or virus in culture; assay type: cell-based, Plasmodium falciparum; conditions: read-out: Blood stage 48h EC50
[6] = molecular target: P. berghei-luciferase sporozoites; experiment: microbe, parasite or virus in culture; assay type: cell-based, Plasmodium berghei; conditions: liver-stage parasites, 48 hours in culture, read-out: Liver stage 48h EC50
in vitro [7] = conditions: human
in vitro [8] = conditions: human; remark: listed apart in the source
HEK293T cells [9] = system: HEK293T cells
HepG2 cells [10] = system: HepG2 cells
[11] = system: P. falciparum (NF54 drug-sensitive strain); parameters: method as in PMID 28446690; conditions: read-out: EC50 against intraerythrocytic lifecycle stages of P. falciparum; cited from earlier work
[12] = P. falciparum blood-stage parasites, 72 hours in culture
[13] = P. falciparum blood-stage parasites, 48 hours in culture

| Compound | EC50 (P. falciparum Dd2-HLH [3]; [12]) [nM] | EC50 (P. falciparum Dd2-HLH [5]; [13]) [nM] | CC50 (HEK293T cells [2]; HEK293T cells) [nM] | EC50 [6] [nM] | CC50 (HepG2 cells [4]; HepG2 cells) [nM] | other results |
| --- | --- | --- | --- | --- | --- | --- |
| Cc1cn2c(-c3ccnc(NCC4CC4)n3)c(-c3ccc(F)c(NS(C)(=O)=O)c3)nc2cc1CN(C)C [ML10] | – | – | – | – | – | EC50 [1]: 2.1 nM; IC50 (PfPKG): 0.16 nM |
| C=C/C=C/C[C@@H](C)[C@@H](O)[C@H]1C(=O)N[C@@H](CC)C(=O)N(C)CC(=O)N(C)[C@@H](CC(C)C)C(=O)N[C@@H](C(C)C)C(=O)N(C)[C@@H](CC(C)C)C(=O)N[C@@H](C)C(=O)N[C@H](C)C(=O)N(C)[C@@H](CC(C)C)C(=O)N(C)[C@@H](CC(C)C)C(=O)N(C)[C@@H](C(C)C)C(=O)N1C [Voclosporin] | 254 | – | – | – | – | CC50 (HEK293T cells [2]; HEK293T cytotoxicity): > 9950 nM; CC50 (HepG2 cells [4]; HepG2 cytotoxicity): > 9950 nM |
| CCCC1(CCC)CCC2(CCN(CCCN(CC)CC)C2)CC1 [Atiprimod dimaleate] | 430 | 43 | 1720 | 7330 | 2990 | – |
| CCN(CCO)CCCOc1ccc2c(Nc3cc(CC(=O)Nc4cccc(F)c4)n[nH]3)ncnc2c1 [Barasertib-HQPA] | – | – | – | – | – | EC50 (P. falciparum Dd2-HLH [5]; Plasmodium falciparum, DD2, 48 h): 253 nM; CC50 (in vitro [7]): > 9990 nM; CC50 (in vitro [8]): > 9950 nM; EC50 (P. falciparum Dd2-HLH [3]; Plasmodium falciparum, DD2, 72 h): 539 nM; EC50 ([6]; Plasmodium berghei, HepG2): 4620 nM |
| Cn1/c(=N\C#N)n(-c2ccc(C(C)(C)C#N)nc2)c2c3cc(-c4cnc(N)c(C(F)(F)F)c4)ccc3ncc21 [Panulisib] | 159 | 19 | – | 77 | – | CC50 (HEK293T cells [9]): 11 nM; CC50 (HepG2 cells [10]): 10 nM |
| Cc1cc(-c2cc(O)ccc2Cl)cc2nnc(Nc3ccc(OCCN4CCCC4)cc3)nc12 [TG 100572 (Hydrochloride)] | 589 | 122 | 1730 | 642 | 3440 | – |
| CCCCCN=C(N)Nc1nc(-c2cnc(C)[nH]2)cs1 [CP 66948] | 977 | 615 | – | > 10000 | – | CC50 (HEK293T cells [9]): > 9950 nM; CC50 (HepG2 cells [10]): > 9950 nM |
| CN(C)CCNc1nc2cc(O)ccc2c2c1C(=O)c1ccccc1-2 [TAS-103] | 756 | 574 | – | 1500 | – | CC50 (HEK293T cells [2]; HEK293T cytotoxicity): 334 nM; CC50 (HepG2 cells [4]; HepG2 cytotoxicity): 766 nM |
| CCN(CC)CC(O)CNc1c2ccc(Cl)cc2nc2ccc(OC)cc12 (stereo not shown) [Acranil] | 20 | 8 | 1430 | 312 | 1110 | – |
| Oc1ccc(CCN2CCC(Nc3nc4ccccc4n3Cc3ccc(F)cc3)CC2)cc1 [Desmethylastemizole] | 47 | 23 | – | 70 | – | CC50 (HEK293T cells [2]; HEK293T cytotoxicity): 5920 nM; CC50 (HepG2 cells [4]; HepG2 cytotoxicity): 58 nM |
| NC(=O)[C@@H](CC1CC1)[C@@H](CCC(F)(F)F)C(=O)N[C@H]1N=C(c2ccccc2)c2cccc(F)c2NC1=O [BMS-983970] | 84 | 63 | – | 102 | – | CC50 (HEK293T cells [9]): > 9950 nM; CC50 (HepG2 cells [10]): 59 nM |
| CCOC(=O)[C@@H]1O[C@H]1C(=O)NC(CC(C)C)C(=O)N1CCN(Cc2ccc(OC)c(OC)c2OC)CC1 (stereo partly shown) [NCO 700] | 33 | 16 | – | > 10000 | – | CC50 (HEK293T cells [9]): > 9950 nM; CC50 (HepG2 cells [10]): > 9950 nM |
| CCCCCCCCN=c1ccn(CCCCCCCC)cc1 [Pirtenidine] | 615 | – | 279 | 838 | 1080 | – |
| CS(=O)(=O)c1ccc(-c2cnc(N)c(-c3ccc(C(F)(F)F)nc3)c2)cc1 [MMV390048] | – | – | – | – | – | EC50 [11]: 28 nM |
| CCC(CC)Nc1cc(C)nc(Oc2c(C)cc(C)cc2C)c1C [CP-376395] | 884 | 835 | > 9950 | 6260 | 2500 | – |
| O=C(CC1c2ccccc2C(=O)N1c1ccc2ccc(Cl)nc2n1)N1CCC2(CC1)OCCO2 (stereo not shown) [Pazinaclone] | 427 | 77 | > 9950 | > 10000 | > 9950 | – |
